Measured values taken from patent publication US8962600B2, “Neuroprotective compounds and their use” (The Medical College of Wisconsin, Inc., priority 2009, dated 2015).

Assays:
Type in all cases: in vivo, C57BL/6 mice
[1] = system: MPTP mouse model of Parkinson's Disease; test: HPLC analysis of striatal dopamine and its metabolites, MPTP mouse model (Example 3); details: MPTP- and diapocynin-treated mice, diapocynin 300 mg/kg oral gavage, MPTP 25 mg/kg i.p.
Description: Six- to 8-week-old C57BL/6 mice weighing 24 to 28 g were housed in standard conditions of constant temperature (22±1° C.), humidity (relative, 30%), and a 12-h light/dark cycle. Mice were allowed free access to food and water. Use of the animals and protocol procedures were approved and supervised by the Committee on Animal Care at Iowa State University (Ames, Iowa). For neurodegeneration studies, mice either received diapocynin (300 mg/kg dose) by oral gavage for 1 day (pre-treatment before MPTP administration), 5 days (co-treatment with MPTP), or 7 days (post-treatment after MPTP).
(§1) For checking inflammatory and oxidative stress markers, mice were gavaged diapocynin (300 mg/kg dose) 1 day before MPTP treatment (pre-treatment) and continued for another 4 days of co-treatment with MPTP. In the sub-acute MPTP regimen, MPTP (25 mg/kg) was injected intraperitoneally once per day from day 2 to day 7. Control mice received saline at the same dosage.
Striatal dopamine (DA), DOPAC and HVA levels were quantified by high-performance liquid chromatography (HPLC) with electrochemical detection. Samples were prepared and quantified as described previously (48, 56). In brief, 7 days after MPTP injection mice were sacrificed, striata were collected and stored at −80° C. On the day of analysis, neurotransmitters from striatal tissues were extracted using an antioxidant extraction solution (0.1 M perchloric acid containing 0.05% Na2EDTA and 0.1% Na2S2O5) and isoproterenol (as an internal standard). The extracts were filtered in 0.22 μm spin tubes, and 20 μl of the samples were loaded for analysis. DA, DOPAC and HVA were separated isocratically on a reversed-phase column with a flow rate of 0.6 ml/min. An HPLC system with an automatic sampler equipped with refrigerated temperature control (model 542; ESA, Inc., Bedford, Mass.) was used for HPLC analysis. The electrochemical detection system consisted of a Coulochem (model 5100A, ESA, Inc.) with a microanalysis cell (model 5014A, ESA, Inc.) and a guard cell (model 5020, ESA, Inc.). […]

GFAP = GFAP expression in substantia nigra (astroglial activation), immunostaining; details: diapocynin 300 mg/kg gavage, 1 day pre-treatment + 4 days co-treatment with MPTP 25 mg/kg i.p.
Description: as §1
(§2) Four days after MPTP treatment, mice were perfused with 4% paraformaldehyde (PFA) and post-fixed with PFA and 30% sucrose, respectively. Next, fixed brains were cut into 30 μm sections and kept in 30% sucrose-ethylene glycol solutions at −20° C. On the day of staining, sections were rinsed with phosphate-buffered saline (PBS) and incubated with different primary antibodies, including anti-IBA-1 (DAKO, Carpinteria, Calif.), anti-GFAP (Millipore, Billerica, Mass.), anti-iNOS (Santa Cruz Biotechnology, Santa Cruz, Calif.), anti-3NT (Millipore), anti-4HNE (R&D Systems, Minneapolis, Minn.) and anti-gp91phox (Santa Cruz Biotechnology) for overnight at 4° C. Appropriate secondary antibodies (Alexa Fluor 488, 594, or 555 from Invitrogen, Carlsbad, Calif.) were used followed by incubation with 10 μg/ml Hoechst 33342 for 5 min at room temperature to stain the nucleus. Sections were viewed under a Nikon inverted fluorescence microscope (model TE-2000U; Nikon, Tokyo, Japan). […]

gp91phox = gp91phox expression in substantia nigra, Western blot and DAB immunostaining
Description: as §1, §2

4-hydroxynonenol (4-HNE) = test: 4-hydroxynonenol expression in substantia nigra, Western blot and immunostaining
Description: as §1, §2

Structure (SMILES): COc1cc(C(C)=O)cc(-c2cc(C(C)=O)cc(OC)c2O)c1O [diapocynin]
- striatal DOPAC levels [1]: significant preservation
- striatal HVA levels [1]: significant preservation
- decrease of dopamine levels in striatum ([1]; 7 days after MPTP): less than 40%
- GFAP protein expression in substantia nigra (GFAP): inhibition
- MPTP-induced expression of gp91phox in substantia nigra (gp91phox; diapocynin 300 mg/kg gavage, MPTP 25 mg/kg i.p., Western blot and DAB immunostaining): attenuated
- colocalization of gp91phox with IBA-1 positive cells (gp91phox; double-labeling, mice treated with MPTP and diapocynin 300 mg/kg): no colocalization
- MPTP-induced increase in expression of 4-HNE in substantia nigra (4-hydroxynonenol (4-HNE); diapocynin 300 mg/kg gavage, MPTP 25 mg/kg i.p., Western blot and immunostaining): attenuated
- colocalized cells of TH and 4-HNE in substantia nigra (4-hydroxynonenol (4-HNE); double-label immunostaining, MPTP- and diapocynin-treated mice): very few colocalized cells
